Usually IC50 stands for the midpoint of a concentration-inhibition curve.

In the first experiment the target is T1, recombinant human GST-SYK (Homo sapiens, UniProt P43405).
T1 construct: purchased Carna Biosciences 08-176
The experiment in a line: Homogeneous Time-Resolved Fluorescence (HTRF) assay for the recombinant human Syk enzyme. To be noted: GST-hSYK 5 pM, ATP 25 μM, 10-dose titration 10 μM to 0.508 nM; read-out: IC50. The experiment is classed as biochemical. As for the experimental part: Homogeneous Time-Resolved Fluorescence (HTRF) Assay for the Recombinant Human Syk Enzyme
A recombinant GST-hSYK fusion protein was used to measure potency of compounds to inhibit human Syk activity. […] Final volume of the reaction was 10 μL. Phosphorylation of the peptide was allowed to proceed for 45 minutes at room temperature. To quench the reaction and detect the phosphorylated product, 2 nM of a Europium-anti-phosphotyrosine antibody (Perkin Elmer #AD0161) and 70 nM SA-APC (Perkin-Elmer #CR130-100) were added together in 15 mM Tris pH 7.5, 40 mM EDTA, 0.01% tween 20. Final volume of the quenching solution was 10 μL. The resulting HTRF signal was measured after 30 minutes on an EnVision (Perkin-Elmer) reader using a time-resolved fluorescence protocol.
(In general: In TR-FRET formats the signal depends on donor and acceptor labels being close together.)
As for `Cc1cc(C)nc(Nc2cc(NC(C(N)=O)C(C)C)cnc2C(N)=O)c1` (centres unmarked) [Example 1.41, 5-[(1-carbamoyl-2-methylpropyl)amino]-3-[(4,6-dimethylpyridin-2-yl)amino]pyridine-2-carboxamide], the IC50 stood at 12 nM.
Same read-out and setting: the result for `Cc1cc(C)nc(Nc2cc(N[C@@H](CC(C)C)C(N)=O)cnc2C(N)=O)c1` [Example 1.46, N^2-{6-carbamoyl-5-[(4,6-dimethylpyridin-2-yl)amino]pyridin-3-yl}- -leucinamide] reads 7.8 nM.

Still in this experiment, the particulars now being: GST-hSYK 5 pM, ATP 25 μM, 10-dose titration 10 μM to 0.508 nM; read-out: rhSYK Activity (IC50 rating).
As for `Cc1nc(Nc2cc(N[C@@H]3CCCC[C@@H]3N)cnc2C(N)=O)ccc1Br` [Example 1.31, 5-{[(1R,2S)-2-aminocyclohexyl]amino}-3-[(5-bromo-6-methylpyridin-2-yl)amino]pyridine-2-carboxamide], the IC50 was < 10 nM.
For `Cn1ccc(Nc2cc(N[C@@H]3CCCC[C@@H]3N)cnc2C(N)=O)n1` [Example 1.33, 5-{[(1R,2S)-2-aminocyclohexyl]amino}-3-[(1-methyl-1H-pyrazol-3-yl)amino]pyridine-2-carboxamide], the IC50 is 10 to 100 nM.
On the same count and under the same terms, the result for `Cc1cc(C)nc(Nc2cc(NCC3(N)CCOCC3)cnc2C(N)=O)c1` [Example 1.34, 5-{[(4-aminotetrahydro-2H-pyran-4-yl)methyl]amino}-3-[(4,6-dimethylpyridin-2-yl)amino]pyridine-2-carboxamide] reads 10 to 100 nM; that for `Cc1cc(C)nc(Nc2cc(NCC3(N)CCOC3)cnc2C(N)=O)c1` (centres unmarked) [Example 1.35, 5-{[(3-aminotetrahydrofuran-3-yl)methyl]amino}-3-[(4,6-dimethylpyridin-2-yl)amino]pyridine-2-carboxamide], 10 to 100 nM.
On the same count and under the same terms, to `Cc1cc(Cl)nc(Nc2cc(N[C@@H]3CCCC[C@@H]3N)cnc2C(N)=O)c1` [Example 1.38, 5-{[(1R,2S)-2-aminocyclohexyl]amino}-3-[(6-chloro-4-methylpyridin-2-yl)amino]pyridine-2-carboxamide] belongs < 10 nM; to `Cc1cc(C)nc(Nc2cc(NC(C)C(N)=O)cnc2C(N)=O)c1` (centres unmarked) [Example 1.39, 5-[(2-amino-1-methyl-2-oxoethyl)amino]-3-[(4,6-dimethylpyridin-2-yl)amino]pyridine-2-carboxamide], 10 to 100 nM; to `Cc1cc(C)nc(Nc2cc(N[C@@H](CC(C)C)C(N)=O)cnc2C(N)=O)c1` [Example 1.40, N^2-{6-carbamoyl-5-[(4,6-dimethylpyridin-2-yl)amino]pyridin-3-yl}leucinamide], < 10 nM.
The same measure, in the same setting: to `Cc1cc(C)nc(Nc2cc(NC(C(N)=O)C(C)C)cnc2C(N)=O)c1` (centres unmarked) [Example 1.41, 5-[(1-carbamoyl-2-methylpropyl)amino]-3-[(4,6-dimethylpyridin-2-yl)amino]pyridine-2-carboxamide] belongs 10 to 100 nM; to `NC(=O)c1ncc(N[C@@H]2CCCC[C@@H]2N)cc1Nc1cccc(-c2ccccn2)n1` [Example 1.42, 5-{[(1R,2S)-2-aminocyclohexyl]amino}-3-(2,2′-bipyridin-6-ylamino)pyridine-2-carboxamide], < 10 nM; to `NC(=O)c1ncc(N[C@@H]2CCCC[C@@H]2N)cc1Nc1ncn(-c2ccccc2)n1` [Example 1.44, 5-{[(1R,2S)-2-aminocyclohexyl]amino}-3-[(1-phenyl-1H-1,2,4-triazol-3-yl)amino]pyridine-2-carboxamide], 10 to 100 nM.
Take `Cc1cc(C)nc(Nc2cc(N[C@@H](CC(C)C)C(N)=O)cnc2C(N)=O)c1` [Example 1.45, N^2-{6-carbamoyl-5-[(4,6-dimethylpyridin-2-yl)amino]pyridin-3-yl}- -leucinamide]: the IC50 is < 10 nM.
Still for that read-out and setting: the result for `Cc1cc(C)nc(Nc2cc(N[C@H]3[C@@H](N)CCCC3(F)F)cnc2C(N)=O)c1` [Example 1.47, 5-{[(1S,6S)-6-amino-2,2-difluorocyclohexyl]amino}-3-[(4,6-dimethylpyridin-2-yl)amino]pyridine-2-carboxamide] reads < 10 nM.
Still for that read-out and setting: to `NC(=O)c1ncc(N[C@@H]2CCCC[C@@H]2N)cc1Nc1cccc(F)n1` [Example 1.48, 5-{[(1R,2S)-2-aminocyclohexyl]amino}-3-[(6-fluoropyridin-2-yl)amino]pyridine-2-carboxamide] belongs < 10 nM; to `CCn1ccc(Nc2cc(N[C@@H]3CCCC[C@@H]3N)cnc2C(N)=O)n1` [Example 1.49, 5-{[(1R,2S)-2-aminocyclohexyl]amino}-3-[(1-ethyl-1H-pyrazol-3-yl)amino]pyridine-2-carboxamide], 10 to 100 nM; to `NC(=O)c1ncc(N[C@@H]2CCCC[C@@H]2N)cc1Nc1ccn(Cc2ccccc2)n1` [Example 1.50, 5-{[(1R,2S)-2-aminocyclohexyl]amino}-3-[(1-benzyl-1H-pyrazol-3-yl)amino]pyridine-2-carboxamide], 10 to 100 nM.
The same measure, in the same setting: to `NC(=O)c1ncc(N[C@@H]2CCCC[C@@H]2N)cc1Nc1cnn(-c2ccccc2)n1` [Example 1.51, 5-{[(1R,2S)-2-aminocyclohexyl]amino}-3-[(2-phenyl-2H-1,2,3-triazol-4-yl)amino]pyridine-2-carboxamide] belongs < 10 nM; to `NC(=O)c1ncc(N[C@@H]2CCCC[C@@H]2N)cc1Nc1cccc(C2CC2)n1` [Example 1.53, 5-{[(1R,2S)-2-aminocyclohexyl]amino}-3-[(6-cyclopropylpyridin-2-yl)amino]pyridine-2-carboxamide], < 10 nM.
Turning to `CC(C)c1cccc(Nc2cc(N[C@@H]3CCCC[C@@H]3N)cnc2C(N)=O)n1` [Example 1.54, 5-{[(1R,2S)-2-aminocyclohexyl]amino}-3-{[6-(1-methylethyl)pyridin-2-yl]amino}pyridine-2-carboxamide], the IC50 is < 10 nM.
`Cc1cc(C)n2nc(Nc3cc(N[C@@H]4CCCC[C@@H]4N)cnc3C(N)=O)cc2n1` [Example 1.55, 5-{[(1R,2S)-2-aminocyclohexyl]amino}-3-[(5,7-dimethylpyrazolo[1,5-a]pyrimidin-2-yl)amino]pyridine-2-carboxamide]: the IC50 is < 10 nM.
Same read-out and setting: the result for `CCn1cnc(Nc2cc(N[C@@H]3CCCC[C@@H]3N)cnc2C(N)=O)n1` [Example 1.56, 5-{[(1R,2S)-2-aminocyclohexyl]amino}-3-[(1-ethyl-1H-1,2,4-triazol-3-yl)amino]pyridine-2-carboxamide] reads 100 to 1000 nM.
On the same count and under the same terms, to `NC(=O)c1ncc(N[C@@H]2CCCC[C@@H]2N)cc1Nc1cccc(N2CCOCC2)n1` [Example 1.57, 5-{[(1R,2S)-2-aminocyclohexyl]amino}-3-[(6-morpholin-4-ylpyridin-2-yl)amino]pyridine-2-carboxamide] belongs < 10 nM; to `NCCNc1cnc(C(N)=O)c(Nc2cccc(-n3nccn3)n2)c1` [Example 1.58, 5-[(2-aminoethyl)amino]-3-{[6-(2H-1,2,3-triazol-2-yl)pyridin-2-yl]amino}pyridine-2-carboxamide], < 10 nM; to `Cc1cc(C(=O)N(C)C)cc(Nc2cc(N[C@@H]3CCCC[C@@H]3N)cnc2C(N)=O)n1` [Example 1.59, 5-{[(1R,2S)-2-aminocyclohexyl]amino}-3-{[4-(dimethylcarbamoyl)-6-methylpyridin-2-yl]amino}pyridine-2-carboxamide], 10 to 100 nM.
Still for that read-out and setting: the result for `NC(=O)c1ncc(N[C@@H]2CCCC[C@@H]2N)cc1Nc1cccc(CN2CCOCC2)n1` [Example 1.60, 5-{[(1R,2S)-2-aminocyclohexyl]amino}-3-{[6-(morpholin-4-ylmethyl)pyridin-2-yl]amino}pyridine-2-carboxamide] reads 100 to 1000 nM.

Values taken from US9216173B2, “2-Pyridyl carboxamide-containing spleen tyrosine kinase (SYK) inhibitors” (Merck Sharp & Dohme Corp., priority 2011, dated 2015).
